Assay results taken from patent publication US20110195929A1, “COMPOUNDS FOR THE TREATMENT OF FLAVIVIRAL INFECTIONS” (SUMMIT CORPORATION PLC, priority 2008, published 2011).
Read-outs that look alike come from different tables or passages of the source.

Experiments:
BVDV = BVDV plaque inhibition assay; assay type: cell-based, bovine diarrhoea virus (BVDV); conditions: for IC50: Bovine viral diarrhea virus isolates and strains, in Bos taurus; for % untreated control: Example 5
Procedure: BVDV Plaque Assay: In the absence of a suitable cell culture system able to support replication of human HCV, bovine diarrhoea virus (BVDV) is an accepted cell culture model. HCV and BVDV share a significant degree of local protein homology, a common replication strategy and probably the same subcellular location for viral envelopment.
(§1) The materials and procedures were as described in Whitby et al. (2004) Antiviral Chemistry and Chemotherapy 15: 141-151. In brief, MDBK cells were seeded in 96 well plates and allowed to reach confluency. Monolayers were exposed to between 14 and 45 plaque forming units of BVDV and adsorption allowed to take place. Infected monolayers were then exposed to the test compound, medium added containing low gelling-point agarose and allowed to set. The plates were then incubated for 4 days post infection, fixed in 5% formalin and stained with 0.5% neutral red after removal of the agarose layer. Anti-viral activity was measured by determination of plaque inhibition and expressed as IC50 values. Castanospermine, a known viral inhibitor, was used as a positive control.
For these assays a confluent monolayer of MDBK cells is produced in a flat bottomed well of a tissue culture plate. The monolayer is infected with BVDV. Sufficient virus is added to eventually form approximately 20-30 plaques. After allowing approximately 1 hr for the virus to infect, the cells are washed and liquid agar is added and allowed to set as a thin layer over the cell surface (the ‘overlay’). The infected cells are then left for a period of days to allow the virus to replicate and cells to shed virus, detach or lyse. Cells in the immediate vicinity of the initial virus infection are therefore infected—localized by the agar layer.
The test compound is added at appropriate dilutions with the virus. An antiviral effect of the compound is scored by the reduction of plaque number or size. The concentration of compound required to produce a 50% (IC50) reduction of plaque number or size is noted. Controls of no compound added are included. A control of a known antiviral compound (castanospermine) is carried out to calibrate the antiviral activity.
Plaque Assay: The materials and procedures were as described in Whitby et al. (2004) Antiviral Chemistry and Chemotherapy 15: 141-151.
as §1, with “In” for “The materials and procedures were as described in Whitby et al. (2004) Antiviral Chemistry and Chemotherapy 15: 141-151. In”, “Castanospermine (Compound 104),” for “Castanospermine,”

Naringinase = test: Glycosidase inhibition: Naringinase; assay type: biochemical, Penecillium decumbens; conditions: 1 mg/ml; pH 4.0, 20° C
Procedure: (§2) Inhibition of the N-linked glycan trimming enzymes alpha-Glucosidases I and II or alpha-Mannosidases I and II are thought to be related to the anti-viral activity of castanospermine (Compound 104) and 1-deoxynojirimycin (Compound 193). […] All enzymes were purchased from Sigma, as were the appropriate p-nitrophenyl substrates. Assays were carried out in microtitre plates. Enzymes were assayed in 0.1M citric acid/0.2M di-sodium hydrogen phosphate (McIlvaine) buffers at the optimum pH for the enzyme. All assays were carried out at 20° C. For screening assays the incubation assay consisted of 10 μl of enzyme solution, 10 μl of inhibitor solution (made up in water at 5 mM) and 50 μl of the appropriate 5 mM p-nitrophenyl substrate (3.57 mM final conc.) made up in McIlvaine buffer at the optimum pH for the enzyme.
(§3) The reactions were stopped with 0.4M glycine (pH 10.4) during the exponential phase of the reaction, which was determined at the beginning of the assay using blanks with water, which were incubated for a range of time periods to measure the reaction rate using 5 mM substrate solution. Endpoint absorbances were read at 405 nm with a Bio-rad microtitre plate reader (Benchmark). Water was substituted for the inhibitors in the blanks.

β-D-glucosidase = test: Glycosidase inhibition: β-D-glucosidase; assay type: biochemical, Almonds (Prunus sp.); conditions: 1 mg/ml; pH 5.0, 20° C
Procedure: as §2, §3

HCV = test: Cell-based HCV infection NS3 protease FRET assay in DMSO-Huh7 cells; parameters: species or system hepatitis C virus (HCV); conditions: DMSO-Huh7 cells infected with HCV at 0.05 ffu/cell; HCV NS3 protein levels by FRET, day 6 p.i.
α-D-mannosidase = target: T1, α-D-mannosidase (Canavalia ensiformis, UniProt C0HJB3); test: Glycosidase inhibition: α-D-mannosidase; assay type: biochemical, Jack beans (Canavalia ensiformis); conditions: 1 mg/ml; pH 4.5, 20° C
T1 construct: purchased Sigma
T1 sequence (C0HJB3 1-981): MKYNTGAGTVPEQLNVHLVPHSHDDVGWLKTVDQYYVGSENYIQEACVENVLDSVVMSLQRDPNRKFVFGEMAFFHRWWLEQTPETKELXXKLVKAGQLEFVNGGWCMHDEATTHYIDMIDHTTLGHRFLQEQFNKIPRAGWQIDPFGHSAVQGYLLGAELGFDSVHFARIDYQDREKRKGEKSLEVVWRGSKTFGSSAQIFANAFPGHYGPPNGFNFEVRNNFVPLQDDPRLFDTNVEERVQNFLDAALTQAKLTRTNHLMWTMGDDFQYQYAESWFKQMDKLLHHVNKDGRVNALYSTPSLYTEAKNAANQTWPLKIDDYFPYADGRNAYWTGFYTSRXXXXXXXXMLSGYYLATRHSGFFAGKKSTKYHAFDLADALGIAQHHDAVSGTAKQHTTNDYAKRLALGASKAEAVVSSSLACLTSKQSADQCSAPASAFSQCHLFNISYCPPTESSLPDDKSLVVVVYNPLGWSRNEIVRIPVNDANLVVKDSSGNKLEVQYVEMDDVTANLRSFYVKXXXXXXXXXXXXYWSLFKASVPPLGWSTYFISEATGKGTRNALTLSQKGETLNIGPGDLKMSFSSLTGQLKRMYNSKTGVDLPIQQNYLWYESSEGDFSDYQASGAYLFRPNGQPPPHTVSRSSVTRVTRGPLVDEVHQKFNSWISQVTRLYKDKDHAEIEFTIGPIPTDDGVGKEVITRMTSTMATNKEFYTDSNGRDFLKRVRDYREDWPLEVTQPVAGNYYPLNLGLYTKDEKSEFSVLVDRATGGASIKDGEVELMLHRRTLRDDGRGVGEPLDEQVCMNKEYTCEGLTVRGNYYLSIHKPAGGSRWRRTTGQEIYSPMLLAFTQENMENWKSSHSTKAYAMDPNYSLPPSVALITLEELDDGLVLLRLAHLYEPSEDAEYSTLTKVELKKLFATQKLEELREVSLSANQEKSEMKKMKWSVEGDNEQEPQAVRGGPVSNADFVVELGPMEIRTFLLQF
Procedure: as §2, §3

β-D-galactosidase = test: Glycosidase inhibition: β-D-galactosidase; assay type: biochemical, Bovine liver; conditions: 1 mg/ml; pH 7.3, 20° C
Procedure: as §2, §3

[1] = MDBK, 96 h, read-out: IC50 (μg/ml)
[2] = Examples 1-3, 50% reduction of plaque number or size, MDBK cells, read-out: IC50 (μg/ml)

Compound | IC50 (BVDV; MDBK, 96 h, read-out: IC50) | IC50 (BVDV; [1]) | % untreated control (BVDV; dose 32 μg/ml (0.17 mM)) | % untreated control (BVDV; dose 63 μg/ml (0.33 mM)) | % untreated control (BVDV; dose 125 μg/ml (0.65 mM)) | % untreated control (BVDV; dose 250 μg/ml (1.30 mM)) | % untreated control (BVDV; dose 500 μg/ml (2.60 mM)) | % inhibition Naringinase (Naringinase) | % inhibition β-glucosidase (β-D-glucosidase) | Ave % inhibition (HCV) | inhibition at 1000 µg/mL (α-D-mannosidase) | % inhibition β-galactosidase (β-D-galactosidase) | IC50 (BVDV; [2]) | % untreated control (BVDV; dose 6.0 μg/ml (0.03 mM)) | % untreated control (BVDV; dose 12.5 μg/ml (0.07 mM)) | % untreated control (BVDV; dose 25.0 μg/ml (0.13 mM)) | % untreated control (BVDV; dose 50.0 μg/ml (0.26 mM)) | % untreated control (BVDV; dose 100.0 μg/ml (0.53 mM))
CC[C@@H]1N[C@@H](CO)[C@H](O)[C@@H](O)[C@@H]1O [Compound 23, (2S,3R,4S,5S,6S)-2-ethyl-6-(hydroxymethyl)piperidine-3,4,5-triol] | 420 µM | 80 µg/mL | 83% | 56% | 47% | 35% | 22% | 0% | 28% | + (+: ≦19%) | 0% | 53% | – | – | – | – | – | –
CC[C@@H](O)[C@H]1N[C@H](CO)[C@@H](O)[C@@H]1O [Compound 62, (2R,3R,4R,5R)-2-(hydroxymethyl)-5-((R)-1-hydroxypropyl)pyrrolidine-3,4-diol] | – | – | – | – | – | – | – | 37% | 100% | + (+: ≦19%) | 0% | 100% | 16.7 µg/mL | – | – | – | – | –
CC(O)[C@H](O)[C@H]1N[C@H](CO)[C@@H](O)[C@@H]1O (stereo partly drawn) [Compound 63, (2R,3R,4R,5R)-2-((1R)-1,2-dihydroxypropyl)-5-(hydroxymethyl)pyrrolidine-3,4-diol] | – | – | – | – | – | – | – | 0% | 93% | + (+: ≦19%) | 0% | 93% | 87.2 µg/mL | – | – | – | – | –
O[C@H]1[C@H](O)[C@@H](O)CN2CC[C@H](O)[C@H]12 [Compound 104, Castanospermine, reference compound] | 120 µM | 22.5 µg/mL | – | – | – | – | – | 39% | 88% | – | 0% | 16% | 15.6 µg/mL | 98% | 67% | 46% | 12% | 1.1%
OC[C@@H]1NC[C@H](O)[C@@H]1O [Compound 167, (2S,3R,4S)-2-(hydroxymethyl)pyrrolidine-3,4-diol] | – | – | – | – | – | – | – | 50% | 22% | – | 0% | 0% | 57.6 µg/mL | – | – | – | – | –
